Measured values: patent publication US8343475B2, “Small cationic antimicrobial peptides” (priority 2006, dated 2013)

Tests used:
Experiment in all cases: Chemokine induction in PBMC (capture ELISA)
Assay type in all cases: cell-based
[1] = tested on: CXCL1 (Gro-α) release by human PBMC; details: background (196) subtracted
Protocol: FIG. 17. Induction of CXCL1 (Gro-α) release by 7.5×10^5 human PBMC in response to treatment with 20 or 100 μg/ml of different peptides for 24 hours.
(§1) Venous blood (20 ml) from healthy volunteers was collected in Vacutainer® collection tubes containing sodium heparin as an anticoagulant (Becton Dickinson, Mississauga, ON) in accordance with UBC ethical approval and guidelines. Blood was diluted 1:1 with complete RPMI 1640 medium and separated by centrifugation over a Ficoll-Paque® Plus (Amersham Biosciences, Piscataway, N.J., USA) density gradient. White blood cells were isolated from the buffy coat, washed twice in RPMI 1640 complete medium, and the number of peripheral blood mononuclear cells (PBMC) was determined by trypan blue exclusion. PBMC (5×10^5) were seeded into 12-well tissue culture dishes (Falcon; Becton Dickinson) at 0.75 to 1×10^6 cells/ml at 37° C. in 5% CO2. The above conditions were chosen to mimic conditions for circulating blood monocytes entering tissues at the site of infection via extravasation.
(§2) Following incubation of the cells under various treatment regimens, the tissue culture supernatants were centrifuged at 1000×g for 5 min, then at 10,000×g for 2 min to obtain cell-free samples. Supernatants were aliquoted and then stored at −20° C. prior to assay for various chemokines by capture ELISA (eBioscience and BioSource International Inc., CA, USA respectively)

[2] = tested on: MCP-3 release by human PBMC; details: background (6) subtracted
Protocol: FIG. 16. Induction of MCP3 release by 7.5×10^5 human PBMC in response to treatment with 20 or 100 μg/ml of different peptides for 24 hours.
as §1, §2

[3] = tested on: MCP-1 release by human PBMC; details: background (204) subtracted
Protocol: FIG. 15. Induction of MCP-1 release by 7.5×10^5 human PBMC in response to treatment with 20 or 100 μg/ml of different peptides for 24 hours.
as §1, §2

Substance	Chemokine induction Gro-α ([1]; 20 μg/ml peptide) [pg/mL]	Chemokine induction Gro-α ([1]; 100 μg/ml peptide) [pg/mL]	Chemokine induction MCP-3 ([2]; 20 μg/ml peptide) [pg/mL]	Chemokine induction MCP-3 ([2]; 100 μg/ml peptide) [pg/mL]	Chemokine induction MCP-1 ([3]; 20 μg/ml peptide) [pg/mL]	Chemokine induction MCP-1 ([3]; 100 μg/ml peptide) [pg/mL]
1003 (IVWKIKRWWVGR) [compound 1003]	65	170	0	5	31	1361
1004 (RFWKVRVKYIRF) [compound 1004]	55	336	1	30	300	1680
1007 (WNRVKWIRR) [compound 1007]	65	170	7	28	103	247
1008 (RIKWIVRFR) [compound 1008]	109	869	1	22	633	1775
1009 (AIRVVRARLVRR) [compound 1009]	230	377	6	6	634	1093
1011 (RRWVVWRIVQRR) [compound 1011]	46	308	1	35	579	2282
1014 (RQVIVRRW) [compound 1014]	6	15	0	1	83	175
1015 (VLIRWNGKK) [compound 1015]	42	178	0	10	113	644
1016 (LRIRWIFKR) [compound 1016]	26	247	1	27	269	819
1017 (KRIVRRLVARIV) [compound 1017]	56	250	0	0	585	1019
1019 (IVVWRRQLVKNK) [compound 1019]	5	43	0	0	27	438
1021 (VRLRIRVAV) [compound 1021]	29	112	3	10	158	276
1022 (LRIRVIVWR) [compound 1022]	10	64	0	1	52	983
1023 (IRVWVLRQR) [compound 1023]	36	38	0	1	250	712
1024 (RIRVIVLKK) [compound 1024]	20	-21	1	0	285	81
